Structures can show the parent of a compound that is named as a salt. Where two headings read alike, the source gives them in different places.
Test system: Normal Human Serum (NHS)
Experiment: Hemolysis assay: lysis of rabbit erythrocytes (RE) by Normal Human Serum (NHS)
Assay type: cell-based
Details: rabbit erythrocyte, 0.5 h, GVB0 plus 10 mM Mg-EGTA, 37° C.
Method: The hemolysis assay was previously described by G. Ruiz-Gomez, et al., J. Med. Chem. (2009) 52: 6042-6052. Prior to the assay, the optimum concentration of Normal Human Serum (NHS) needed to achieve 100% lysis of rabbit erythrocytes (RE) is determined by titration. In the assay, NHS (Complement Technology) is diluted in GVB^0 Buffer (0.1% gelatin, 5 mM Veronal, 145 mM NaCl, 0.025% NaN3, pH 7.3, Complement Technology) plus 10 mM Mg-EGTA and incubated with test compound at various concentrations for 15 minutes at 37° C. RE (Complement Technology) freshly suspended in GVB^0 plus 10 mM Mg-EGTA are added to a final concentration of 1×10^8 cells/mL and reactions are incubated for 30 minutes at 37° C. Positive control reactions (100% lysis) consist of GVB^0 plus 10 mM Mg-EGTA with NHS and RE but without test compound; negative control reactions (0% lysis) consist of GVB^0 plus 10 mM Mg-EGTA with RE only. Samples are centrifuged at 2000 g for 3 minutes and supernatants collected. Absorbance at 405 nm (A405) is recorded using a microplate spectrophotometer. IC50 values are calculated by nonlinear regression from the percentage of hemolysis as a function of test compound concentration.

[1] = Table 1, hemolysis of rabbit erythrocytes with NHS, read-out: IC50
[2] = Table 3, hemolysis of rabbit erythrocytes with NHS, read-out: IC50 (Stars)
[3] = Table 2, hemolysis of rabbit erythrocytes with NHS, read-out: IC50 (Stars)

SMILES	IC50 [1] [µM]	IC50 [2] [µM]	further results
CCN[C@H](CC(=O)N1CCC(c2nc(N)c3cc(OC)c(OC)c(F)c3n2)=C(C(=O)O)C1)c1ccc(F)cc1 [Compound 8, (R)-4-(4-Amino-8-fluoro-6,7-dimethoxyquinazolin-2-yl)-1-(3-(ethylamino)-3-(4-fluorophenyl)propanoyl)-1,2,5,6-tetrahydropyridine-3-carboxylic Acid]	> 10		
COc1cc(C)c2[nH]ccc2c1CN1CC[C@@H](C)C[C@H]1c1ccc(P(=O)(O)O)cc1 [Compound 32, (4-((2S,4R)-1-((5-Methoxy-7-methyl-1H-indol-4-yl)methyl)-4-methylpiperidin-2-yl)phenyl)phosphonic Acid]		< 1	
COc1cc(C)c2[nH]ccc2c1CN1CCCC[C@H]1C1CCC(C(=O)O)CC1 (stereo partly drawn) [Compound 20, (1R,4S)-4-((S)-1-((5-Methoxy-7-methyl-1H-indol-4-yl)methyl)piperidin-2-yl) Cyclohexanecarboxylic Acid]		> 10	
CCN[C@H](CC(=O)N1CC=C(c2nc(N)c3cc(OC)c(OC)c(F)c3n2)CC1)c1ccc(F)cc1 [Compound 4, (R)-1-(4-(4-Amino-8-fluoro-6,7-dimethoxyquinazolin-2-yl)-3,6-dihydropyridin-1(2H)-yl)-3-(ethylamino)-3-(4-fluorophenyl)propan-1-one]	< 1		
COc1cc(C)c2[nH]ccc2c1CN1CC[C@@H](C)C[C@H]1c1ccc([S@@](C)(=N)=O)cc1 [Compound 30, 5-Methoxy-7-methyl-4-(((2S,4R)-4-methyl-2-(4-((S)—S-methylsulfonimidoyl)phenyl)piperidin-1-yl)methyl)-1H-indole]		< 1	
CCN[C@H](CC(=O)N1CC2CCC(C1)N2c1nc(N)c2cc(OC)c(OC)c(F)c2n1)c1ccc(C#N)cc1 [Compound 16, 4-((1R)-3-(8-(4-Amino-8-fluoro-6,7-dimethoxyquinazolin-2-yl)-3,8-diazabicyclo[3.2.1]octan-3-yl)-1-(ethylamino)-3-oxopropyl)benzonitrile]			IC50 [3]: < 1 µM
CCN[C@H](CC(=O)N1CC=C(c2nc(N)c3cc(OC)c(OC)c(F)c3n2)CC1)c1ccc(C#N)cc1 [Compound 17, (R)-4-(3-(4-(4-Amino-8-fluoro-6,7-dimethoxyquinazolin-2-yl)-3,6-dihydropyridin-1(2H)-yl)-1-(ethylamino)-3-oxopropyl)benzonitrile]			IC50 [3]: < 1 µM
COc1cc(C)c2[nH]ccc2c1CN1CC[C@H](C)C[C@@H]1c1ccc(S(C)(=N)=O)cc1 (stereo partly drawn) [Compound 23, 5-Methoxy-7-methyl-4-(((2R,4S)-4-methyl-2-(4-(S-methylsulfonimidoyl)phenyl)piperidin-1-yl)methyl)-1H-indole]		> 10	
COc1cc2c(N)nc(N3CCN(C(=O)C[C@@H]4C[C@@H]5CCCC[C@@H]5N4)CC3)nc2c(F)c1OC [Compound 3, 1-(4-(4-Amino-8-fluoro-6,7-dimethoxyquinazolin-2-yl)piperazin-1-yl)-2-((2S,3aS,7aS)-octahydro-1H-indol-2-yl)ethan-1-one Hydrochloride]	< 1		
CCN[C@H](CC(=O)N1CCC(c2nc(N)c3cc(OC)c(OC)c(F)c3n2)=C(C(=O)OC)C1)c1ccc(F)cc1 [Compound 6, Methyl (R)-4-(4-amino-8-fluoro-6,7-dimethoxyquinazolin-2-yl)-1-(3-(ethylamino)-3-(4-fluorophenyl)propanoyl)-1,2,5,6-tetrahydropyridine-3-carboxylate]	1 to 10		
COc1cc(C)c2[nH]ccc2c1CN1CCC(C)CC1c1ccc(C(=O)O)c2c1CCCC2 (stereo not shown) [Compound 28, 4-(1-((5-Methoxy-7-methyl-1H-indol-4-yl)methyl)-4-methylpiperidin-2-yl)-5,6,7,8-tetrahydronaphthalene-1-carboxylic Acid]		< 1	
COc1cc2c(N)nc(N3CCN(C(=O)C[C@@H]4C[C@@H]5CCC[C@@H]5N4)CC3)nc2c(F)c1OC [Compound 2, 1-(4-(4-Amino-8-fluoro-6,7-dimethoxyquinazolin-2-yl)piperazin-1-yl)-2-((2S,3aS,6aS)-octahydrocyclopenta[b]pyrrol-2-yl)ethan-1-one Hydrochloride]	< 1		
COc1cc(C)c2[nH]ccc2c1CN1CC[C@@H](C)C[C@@H]1c1ccc(C(=O)O)c2c1CCCC2 [Compound 35, 4-((2R,4R)-1-((5-Methoxy-7-methyl-1H-indol-4-yl)methyl)-4-methylpiperidin-2-yl)-5,6,7,8-tetrahydronaphthalene-1-carboxylic Acid]		> 10	
CCN[C@H](CC(=O)N1C(C)C=C(c2nc(N)c3cc(OC)c(OC)c(F)c3n2)CC1C)c1ccc(F)cc1 (stereo partly drawn) [Compound 10, (3R)-1-(4-(4-Amino-8-fluoro-6,7-dimethoxyquinazolin-2-yl)-2,6-dimethyl-3,6-dihydropyridin-1(2H)-yl)-3-(ethylamino)-3-(4-fluorophenyl)propan-1-one]	< 1		
COc1cc(C)c2[nH]ncc2c1CN1CC[C@@H](C)C[C@H]1c1ccc(C(=O)O)cc1 [Compound 21, 4-((2S, 4R)-1-((5-Methoxy-7-methyl-1H-indazol-4-yl) Methyl)-4-methylpiperidin-2-yl) Benzoic Acid]		> 10	
COc1cc(C)c2[nH]c(C)cc2c1CN1CC[C@@H](C)C[C@H]1c1ccc(C(=O)O)cc1 [Compound 24, 4-((2S, 4R)-1-((5-Methoxy-2,7-dimethyl-1H-indol-4-yl) Methyl)-4-methylpiperidin-2-yl) Benzoic Acid]		> 10	
COc1cc(C)c2[nH]ccc2c1CN1CC[C@H](C)C[C@@H]1c1ccc(P(=O)(O)O)cc1 [Compound 33, 4-((2R, 4S)-1-((5-Methoxy-7-methyl-1H-indol-4-yl)methyl)-4-methylpiperidin-2-yl) Phenylphosphonic Acid]		1 to 10	
COc1cc(C)c2[nH]ccc2c1CN1CCC(C)CC1c1ccc(P(=O)(O)O)cc1 (stereo not shown) [Compound 26, 4-(1-((5-Methoxy-7-methyl-1H-indol-4-yl)methyl)-4-methylpiperidin-2-yl)phenylphosphonic Acid]		< 1	
CCN[C@H](CC(=O)N1CCC(c2nc(N)c3cc(OC)c(OC)c(F)c3n2)C(C(=O)O)C1)c1ccc(F)cc1 (stereo partly drawn) [Compound 9, 4-(4-Amino-8-fluoro-6,7-dimethoxyquinazolin-2-yl)-1-((R)-3-(ethylamino)-3-(4-fluorophenyl)propanoyl)piperidine-3-carboxylic acid]	1 to 10		
COc1cc(C)c2[nH]ccc2c1CN1CCC(C)CC1c1ccc(C(=O)NO)cc1 (stereo not shown) [Compound 27, N-Hydroxy-4-(1-((5-methoxy-7-methyl-1H-indol-4-yl)methyl)-4-methylpiperidin-2-yl)benzamide]		< 1	
CCN[C@H](CC(=O)N1CCC(c2nc(N)c3cc(OC)c(OC)c(F)c3n2)C(C(=O)OC)C1)c1ccc(F)cc1 (stereo partly drawn) [Compound 7, Methyl 4-(4-amino-8-fluoro-6,7-dimethoxyquinazolin-2-yl)-1-((R)-3-(ethylamino)-3-(4-fluorophenyl)propanoyl)piperidine-3-carboxylate]	> 10		
CCN[C@H](CC(=O)N1CC2CCC1CN2c1nc(N)c2cc(OC)c(OC)c(F)c2n1)c1ccc(F)cc1 (stereo partly drawn) [Compound 15, (3R)-1-(5-(4-Amino-8-fluoro-6,7-dimethoxyquinazolin-2-yl)-2,5-diazabicyclo[2.2.2]octan-2-yl)-3-(ethylamino)-3-(4-fluorophenyl)propan-1-one]	> 10		
COc1cc(C)c2[nH]ccc2c1CN1CCC(C)CC1c1ccc(S(C)(=N)=O)cc1 (stereo not shown) [Compound 25, 5-Methoxy-7-methyl-4-((4-methyl-2-(4-(S-methylsulfonimidoyl)phenyl)piperidin-1-yl)methyl)-1H-indole]		< 1	
COc1cc(C)c2[nH]ccc2c1CN1CC[C@@H](C)C[C@H]1c1ccc(C(=O)O)c2c1CCCC2 [Compound 34, 4-((2S,4R)-1-((5-Methoxy-7-methyl-1H-indol-4-yl)methyl)-4-methylpiperidin-2-yl)-5,6,7,8-tetrahydronaphthalene-1-carboxylic Acid]		< 1	
COc1cc(C)c2[nH]ccc2c1CN1CC[C@@H](C)C[C@H]1c1ccc(P(C)(=O)O)cc1 [Compound 29, 4-((2S, 4R)-1-((5-Methoxy-7-methyl-1H-indol-4-yl)methyl)-4-methylpiperidin-2-yl) Phenyl (Methyl) Phosphinic Acid]		< 1	
COc1cc(C)c2[nH]ccc2c1CN1CC[C@@H](C)C[C@H]1c1ccc(S(C)(=N)=O)cc1 (stereo partly drawn) [Compound 22, 5-Methoxy-7-methyl-4-(((2 S,4R)-4-methyl-2-(4-(S-methylsulfonimidoyl)phenyl)piperidin-1-yl)methyl)-1H-indole]		< 1	
COc1cc(C)c2[nH]ccc2c1CN1CC[C@@H](C)C[C@H]1c1ccc([S@](C)(=N)=O)cc1 [Compound 31, 5-Methoxy-7-methyl-4-(((2S,4R)-4-methyl-2-(4-((R)—S-methylsulfonimidoyl)phenyl)piperidin-1-yl)methyl)-H-indole]		< 1	
CCN[C@H](CC(=O)N1CCN(c2nc(N)c3cc4c(c(F)c3n2)OC(F)(F)O4)CC1)c1ccc(F)cc1 [Compound 12, (R)-1-(4-(8-Amino-2,2,4-trifluoro-[1,3]dioxolo[4,5-g]quinazolin-6-yl)piperazin-1-yl)-3-(ethylamino)-3-(4-fluorophenyl)propan-1-one]	1 to 10		

Reference: US10961252B2, “Quinazoline and indole compounds to treat medical disorders” (Achillion Pharmaceuticals, Inc., priority 2016, dated 2021)
